Where two headings read alike, the source gives them in different places.
Legend:
[1] = system: IPEC-J2 cells; assay type: cell-based, porcine; settings: relative to unstimulated IPEC-J2 cells
[2] = system: nursery pigs; settings: 3 ppm DON in diet, 7 days

Molecule	IL-6 gene expression fold change ([1]; LPS 10 ng/mL)	IL-8 gene expression fold change ([1]; LPS 10 ng/mL)	TNF-α gene expression fold change ([1]; LPS 10 ng/mL)	IL-6 gene expression fold change ([1]; DON 10 ng/mL)	IL-8 gene expression fold change ([1]; DON 10 ng/mL)	TNF-α gene expression fold change ([1]; LPS/DON)	ADFI ([2]; Non-Responders)	ADG ([2]; Non-Responders)	G:F ([2]; Non-Responders)	ADFI ([2]; Responders)	ADG ([2]; Responders)	G:F ([2]; Responders)
lipopolysaccharide [LPS]	0.29 fold	0.88 fold	0.16 fold	–	–	–	–	–	–	–	–	–
CC1=C[C@H]2O[C@@H]3[C@H](O)C[C@](C)([C@@]2(CO)[C@H](O)C1=O)[C@]31CO1 [DON, deoxynivalenol]	–	–	–	−0.86 fold	0.56 fold	about 5 fold	0.71 kg	0.46 kg	0.64	0.42 kg	0.26 kg	0.61

From patent US20150306154A1, “STRAINS AND METHODS USEFUL FOR MYCOTOXINS” (DuPont Nutrition Biosciences ApS, priority 2011, published 2015)
